{
  "source": "paper PMC9794833",
  "about": "“Ligand recognition and activation of neuromedin U receptor 2” (Nature Communications, 2022)",
  "format_in_all_cases": "cell-based",
  "key": {"NMU2": {"biological_target": "T1, NMU2 (Homo sapiens, UniProt Q9GZQ4)", "T1 construct": "HA signal peptide (N); expressed in transfected cells; host or cells: HEK 293F", "assay": "TRUPATH Gαi1βγ biosensor assay, WT NMU2", "conditions": "for NmU-25–induced G protein activation of NMU2: single replicates, in % (unit assumed)", "procedure": "(§1) The plasmids of Gαi1, Gβ3, and Gγ9 used for the TRUPATH assay were purchased from Addgene (TRUPATH Kit, #1000000163). NMU2 constructs of WT and mutants were constructed into a PTT5 vector (Invitrogen) with an N-terminal HA signal peptide followed by a Flag tag. HEK 293F cells were transiently transfected with WT or mutants of NMU2, Gαi1, Gβ3, and Gγ9 at an […] ratio of 4:1:1:1 with a total of 3500 ng plasmid DNA using a transfection reagent (PEI MAX 2000, Polysciences) and cultivated at 37 °C with 5 % CO2. Cells were collected after 48-h transfection. The expression level of the receptor was measured by incubating 10 μl cells with 15 μl TBS buffer supplemented with 4% bovine serum albumin, 20% (v/v) viability staining solution7-AAD (Invitrogen, Cat#00-6993-50), and ANTI-FLAG M2-FITC antibody (Sigma, F4049; 1:100 diluted by TBS) at 4 °C for 20 min. After incubation, 175 μl TBS buffer was added, and the fluorescence signal on the cell surface was detected by an FCM (flow cytometry) reader (Millipore). The cells were diluted with 1× HBSS (Hank’s balanced salt solution) balanced buffer supplemented with 25 mM HEPES, pH 7.4, and seeded onto the 96-well opaque cell culture plates (Beyotime) at a density of 18,000 cells per well by 60 μl. Freshly prepared 50 μM coelenterazine 400a (Nanolight Technologies) was added into the well by 10 μl. After a 5 min equilibration time in the darkness, plates were then read in a Synerg^TM H1 microplate reader (BioTek) with excitation at 395 nm and emission at 410 and 515 nm by serially three times. Then, 30 μl of 3.3× agonists were added into the wells with a gradient final concentration from 10^−4–10^−13 M. Plates were read immediately again by serially five times. Data were processed and analyzed following the method in the literature by using GraphPad Prism 8.0."}, "NMU2 E102A": {"biological_target": "T2, NMU2 E102A (Homo sapiens, UniProt Q9GZQ4, E102A)", "T2 construct": "HA signal peptide (N); expressed in transfected cells; host or cells: HEK 293F", "T2 sequence (Q9GZQ4 whole entry E102A)": "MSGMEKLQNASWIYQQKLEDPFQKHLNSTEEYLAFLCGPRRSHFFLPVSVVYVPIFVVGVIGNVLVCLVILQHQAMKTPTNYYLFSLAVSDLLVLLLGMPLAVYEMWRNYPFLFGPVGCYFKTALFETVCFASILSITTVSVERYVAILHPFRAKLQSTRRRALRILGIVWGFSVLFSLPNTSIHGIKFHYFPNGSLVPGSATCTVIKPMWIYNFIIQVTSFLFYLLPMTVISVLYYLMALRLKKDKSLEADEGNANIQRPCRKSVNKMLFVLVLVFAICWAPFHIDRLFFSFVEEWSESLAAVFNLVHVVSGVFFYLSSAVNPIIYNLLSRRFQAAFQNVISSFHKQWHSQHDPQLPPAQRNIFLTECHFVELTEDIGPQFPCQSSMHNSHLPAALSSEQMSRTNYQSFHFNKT", "assay": "TRUPATH assay, NMU2 mutant E102A", "procedure": "as §1, with “The cells were diluted with 1× HBSS (Hank’s balanced salt solution) balanced buffer supplemented with 25 mM HEPES, pH 7.4, and seeded onto the 96-well opaque cell culture plates (Beyotime) at a density of 18,000 cells per well by 60 μl. Freshly prepared 50 μM coelenterazine 400a (Nanolight Technologies) was added into the well by 10 μl.” left out, “Data were processed and analyzed following the method in the literature by using GraphPad Prism 8.0.” left out"}, "NMU2 N109A": {"biological_target": "T3, NMU2 N109A (Homo sapiens, UniProt Q9GZQ4, N109A)", "T3 construct": "HA signal peptide (N); expressed in transfected cells; host or cells: HEK 293F", "T3 sequence (Q9GZQ4 whole entry N109A)": "as the sequence (Q9GZQ4 whole entry E102A) above, with A102E, N109A counted along it", "assay": "TRUPATH assay, NMU2 mutant N109A", "procedure": "as §1"}, "NMU2 W281A": {"biological_target": "T4, NMU2 W281A (Homo sapiens, UniProt Q9GZQ4, W281A)", "T4 construct": "HA signal peptide (N); expressed in transfected cells; host or cells: HEK 293F", "T4 sequence (Q9GZQ4 whole entry W281A)": "as the sequence (Q9GZQ4 whole entry E102A) above, with A102E, W281A counted along it", "assay": "TRUPATH assay, NMU2 mutant W281A", "procedure": "as §1"}, "NMU2 F284A": {"biological_target": "T5, NMU2 F284A (Homo sapiens, UniProt Q9GZQ4, F284A)", "T5 construct": "HA signal peptide (N); expressed in transfected cells; host or cells: HEK 293F", "T5 sequence (Q9GZQ4 whole entry F284A)": "as the sequence (Q9GZQ4 whole entry E102A) above, with A102E, F284A counted along it", "assay": "TRUPATH assay, NMU2 mutant F284A", "procedure": "as §1"}, "[1]": {"conditions": "read-out: pEC50 mean±SEM (converted)"}},
  "note": "“And” between values parts separate entries of the source, which are not always exact repeats. Identical values can stand only once. Like-named read-outs stand apart in the source and are kept apart here. Where no end group is shown, it is not given here.",
  "data": [
    {"substance": "FRVDEEFQSPFASQSRGYFLFRPRN-NH2 [NmU-25]", "values": [
      {"measurement": "potency on Gi1, Gq and G11 signaling pathways (in words)", "setting": "NMU2; TRUPATH, peer review file", "value": "highest potency by coupling Gi1"},
      {"measurement": "EC50 ratio EC50(mutant)/EC50(WT)", "setting": "NMU2; WT", "value": 1},
      {"measurement": "Span (window between Emax and minimal agonist response)", "setting": "NMU2; WT", "value": "100±5 % of WT"},
      {"measurement": "NmU-25–induced G protein activation of NMU2", "setting": "NMU2; WT, Log [NmU-25] M -4", "value": "96.1513 and 120.034 and 131.645 and 132.135 and 112.945 and 100.303 and 111.674 and 103.511"},
      {"measurement": "NmU-25–induced G protein activation of NMU2", "setting": "NMU2; WT, Log [NmU-25] M -5", "value": "94.5176 and 100.381 and 95.0326"},
      {"measurement": "NmU-25–induced G protein activation of NMU2", "setting": "NMU2; WT, Log [NmU-25] M -8", "value": "14.7563 and 14.6245 and 25.1777 and 27.4903 and 32.4994 and 60.5946 and 16.3263 and -20.6053 and 85.0469 and -9.5497 and 77.5389 and 54.5579 and 12.0114"},
      {"measurement": "NmU-25–induced G protein activation of NMU2", "setting": "NMU2; WT, Log [NmU-25] M -9", "value": "14.8034 and 2.989 and 12.9021 and 10.3696 and 7.38 and -3.464 and 27.6247 and 0.6791 and -7.166 and 14.4877 and 22.3774 and 22.0623 and -4.444"},
      {"measurement": "NmU-25–induced G protein activation of NMU2", "setting": "NMU2; WT, Log [NmU-25] M -10", "value": "-1.975 and -9.668 and -7.55 and 11.1071 and -8.093 and -25.3752 and 0.6481 and -23.592 and -13.8096 and 16.7093 and 3.342 and 8.321 and 30.8279"},
      {"measurement": "NmU-25–induced G protein activation of NMU2", "setting": "NMU2; WT, Log [NmU-25] M -11", "value": "-12.488 and 4.703 and -8.667 and -24.4881 and 6.542 and 34.4845 and -19.0587 and 46.905 and 31.0606 and -18.1089 and -17.8891 and -27.6836"},
      {"measurement": "EC50", "setting": "NMU2; WT, agonist-induced G protein activation, HEK 293F, read-out: EC50", "value": 34, "unit": "nM"},
      {"measurement": "EC50", "setting": "NMU2; WT, earlier manuscript version quoted in peer review file, read-out: EC50", "value": 37, "unit": "nM"},
      {"measurement": "EC50", "setting": "NMU2; WT, read-out: pEC50 mean±SEM (converted)", "value": 34.7, "unit": "nM"},
      {"measurement": "potency (in words)", "setting": "NMU2 E102A", "value": "complete loss of potency"},
      {"measurement": "EC50 ratio EC50(mutant)/EC50(WT)", "setting": "NMU2 N109A", "value": 9},
      {"measurement": "Span (window between Emax and minimal agonist response)", "setting": "NMU2 N109A", "value": "138±11 % of WT"},
      {"measurement": "G protein activation (TRUPATH), dose-response point", "setting": "NMU2 N109A; Log [agonist] M -4", "value": 126.259},
      {"measurement": "G protein activation (TRUPATH), dose-response point", "setting": "NMU2 N109A; Log [agonist] M -5", "value": "106.487 and 123.773 and 113.723"},
      {"measurement": "G protein activation (TRUPATH), dose-response point", "setting": "NMU2 N109A; Log [agonist] M -6", "value": "98.1363 and 71.1117 and 54.8765"},
      {"measurement": "ΔpEC50 (from WT)", "setting": "NMU2 N109A; individual experiments", "value": "-1.459 and -0.6318 and -0.9885"},
      {"measurement": "EC50", "setting": "NMU2 N109A; read-out: EC50", "value": 298, "unit": "nM"},
      {"measurement": "EC50", "setting": "NMU2 N109A; [1]", "value": 295, "unit": "nM"},
      {"measurement": "EC50 ratio EC50(mutant)/EC50(WT)", "setting": "NMU2 W281A", "value": 24},
      {"measurement": "Span (window between Emax and minimal agonist response)", "setting": "NMU2 W281A", "value": "55±9 % of WT"},
      {"measurement": "G protein activation (TRUPATH), dose-response point", "setting": "NMU2 W281A; Log [agonist] M -4", "value": "31.1201 and 49.629"},
      {"measurement": "ΔpEC50 (from WT)", "setting": "NMU2 W281A; individual experiments", "value": "-1.673 and -1.545 and -1.465"},
      {"measurement": "EC50", "setting": "NMU2 W281A; read-out: EC50", "value": 814, "unit": "nM"},
      {"measurement": "EC50", "setting": "NMU2 W281A; [1]", "value": 813, "unit": "nM"},
      {"measurement": "NmU-25–induced G protein activation of NMU2", "setting": "NMU2 F284A; Log [NmU-25] M -4, single replicates", "value": "51.7867 and 36.0609 and 47.0977"},
      {"measurement": "NmU-25–induced G protein activation of NMU2", "setting": "NMU2 F284A; Log [NmU-25] M -5, single replicates", "value": "36.8137 and 51.0666 and -1.433 and 5.137 and 15.0834"},
      {"measurement": "NmU-25–induced G protein activation of NMU2", "setting": "NMU2 F284A; Log [NmU-25] M -6, single replicates", "value": "-9.689 and 18.4963 and 20.7431 and 10.1867 and 6.446"}
    ]}
  ]
}
